Tests used:
hTGase 2 [1] = target: T1, hTGase 2 (Homo sapiens, UniProt P21980); assay: Fluorimetric activity assay (substrate Z-Glu(HMC)-Gly-OH); assay type: biochemical; parameters: purchased Zedira T022; settings: mean (SEM) of 2 experiments
T1 sequence (P21980 1-687): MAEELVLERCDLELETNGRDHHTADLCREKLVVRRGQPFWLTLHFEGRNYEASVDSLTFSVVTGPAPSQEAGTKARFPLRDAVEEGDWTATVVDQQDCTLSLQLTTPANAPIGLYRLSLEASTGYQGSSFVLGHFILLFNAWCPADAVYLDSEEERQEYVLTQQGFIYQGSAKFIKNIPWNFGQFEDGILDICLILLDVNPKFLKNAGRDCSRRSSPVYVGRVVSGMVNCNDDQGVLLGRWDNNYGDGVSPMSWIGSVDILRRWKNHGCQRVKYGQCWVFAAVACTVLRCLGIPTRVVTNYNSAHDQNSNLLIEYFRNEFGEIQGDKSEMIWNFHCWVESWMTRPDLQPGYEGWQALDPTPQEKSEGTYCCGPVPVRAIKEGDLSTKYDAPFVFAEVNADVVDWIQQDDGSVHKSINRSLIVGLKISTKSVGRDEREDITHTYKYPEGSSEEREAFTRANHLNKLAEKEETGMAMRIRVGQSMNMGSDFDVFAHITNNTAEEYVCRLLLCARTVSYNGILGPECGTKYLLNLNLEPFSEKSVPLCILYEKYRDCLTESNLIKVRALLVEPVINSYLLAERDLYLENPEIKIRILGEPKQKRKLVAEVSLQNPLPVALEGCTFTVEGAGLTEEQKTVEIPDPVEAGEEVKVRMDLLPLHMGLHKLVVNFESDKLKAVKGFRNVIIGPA
Protocol: The kinetic characterization of compounds 3 and 4 by means of their kinact/KI values was performed using a fluorimetric activity assay (substrate Z-Glu(HMC)-Gly-OH) as described recently.

hTGase 2 [2] = target: T1, hTGase 2; assay: FA-based assay, characterization of irreversible inhibitors; settings: DMC 30 µM, mean (SEM)
hTGase 2 [3] = target: T1, hTGase 2; parameters: purchased Zedira T022; method as in PMID 29664627; settings: fluorimetric activity assay; mean (SEM); cited from earlier work
TGase 2 in cell lysates = target: T2, TGase 2 in cell lysates (Homo sapiens, UniProt P21980); assay: FA-based assay of TGase 2 activity in cell lysates, control with inhibitor; assay type: biochemical, human and mouse; settings: 10 µM inhibitor, preincubation 10 min; DMC 30 µM, R-I-Cad 0.81 µM; all studied cell lines
T2 construct: endogenous in cells; host or cells: lysates of 30 cell lines (27 human, 3 mouse), e.g. HUVEC, A375
T2 sequence (P21980 2-687 limits assumed): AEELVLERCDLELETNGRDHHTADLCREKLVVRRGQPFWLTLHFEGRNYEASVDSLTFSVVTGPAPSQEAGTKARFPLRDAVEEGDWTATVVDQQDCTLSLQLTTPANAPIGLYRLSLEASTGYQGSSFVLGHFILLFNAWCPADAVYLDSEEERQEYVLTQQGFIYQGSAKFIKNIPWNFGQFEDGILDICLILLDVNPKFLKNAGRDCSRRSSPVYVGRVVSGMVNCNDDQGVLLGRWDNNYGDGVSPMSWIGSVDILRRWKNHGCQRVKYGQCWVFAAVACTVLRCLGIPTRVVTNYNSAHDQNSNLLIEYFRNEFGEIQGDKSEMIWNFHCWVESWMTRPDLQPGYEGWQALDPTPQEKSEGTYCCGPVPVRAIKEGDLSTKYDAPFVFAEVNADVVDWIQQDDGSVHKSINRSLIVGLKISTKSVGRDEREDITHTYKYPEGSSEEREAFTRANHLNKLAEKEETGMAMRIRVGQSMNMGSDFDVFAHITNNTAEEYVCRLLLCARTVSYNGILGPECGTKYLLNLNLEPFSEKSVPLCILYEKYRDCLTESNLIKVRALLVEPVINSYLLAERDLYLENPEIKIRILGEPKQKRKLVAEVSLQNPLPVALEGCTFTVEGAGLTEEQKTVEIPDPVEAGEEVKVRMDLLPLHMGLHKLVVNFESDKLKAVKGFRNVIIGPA
Protocol: Lysis of cell pellets was performed as described recently. Accordingly, cell pellets were resuspended in 50 µL modified RIPA buffer A, incubated on ice for 30 min and applied to ultrasound (Bandelin Sonopuls, 2 × 15 s, 20% power at ambient temperature). Subsequently, cell lysates were incubated on ice for 10 min and were then spun for 15 min at 4 °C at 15,000× g. The supernatants were transferred into fresh tubes. The protein content was determined with a BCA protein assay (ThermoFisher, Waltham, MA, USA) according to the manufacturer’s protocol. Lysates were stored at −60 °C.

[4] = IC50 hTGase 2, preincubation 5 min, R-I-Cad 0.81 µM, hTGase 2 2 µg/mL
[5] = IC50 hTGase 2, preincubation 30 min, R-I-Cad 0.74 µM, hTGase 2 5 µg/mL

| SMILES | kinact/KI (hTGase 2 [1]) | IC50 (hTGase 2 [2]; [4]) | IC50 (hTGase 2 [2]; [5]) | kinact/KI hTGase 2 (hTGase 2 [3]) | FA increase over time in cell lysates in the presence of inhibitor (TGase 2 in cell lysates) |
| --- | --- | --- | --- | --- | --- |
| C=CC(=O)NCCCC[C@H](NC(=O)Cc1ccccc1)C(=O)N1CCN(c2cccc(-c3cn(CCOCCOCCOCCNC(=O)CCCC[C@@H]4SC[C@@H]5NC(=O)N[C@@H]54)nn3)n2)CC1 [Compound 4, N-(2-(2-(2-(2-(4-(6-(4-(N^6-acryloyl-N^2-(2-phenylacetyl)-L-lysyl)piperazin-1-yl)pyridin-2-yl)-1H-1,2,3-triazol-1-yl)ethoxy)ethoxy)ethoxy)ethyl)-5-((3aS,4S,6aR)-2-oxohexahydro-1H-thieno[3,4-d]imidazol-4-yl)pentanamide] | 7260 M⁻¹ s⁻¹ | 249 nM | 68 nM | – | – |
| C=CC(=O)NCCCC[C@H](NC(=O)Cc1ccccc1)C(=O)N1CCN(c2ccc([N+](=O)[O-])nc2)CC1 [Compound 2] | – | – | 42 nM | 8460 (710) ^c M^−1s^−1 | – |
| C=CC(=O)NCCCC[C@H](NC(=O)Cc1ccccc1)C(=O)N1CCN(c2cccc(C)n2)CC1 [Compound 1] | – | – | 40 nM | 4880 (20)^c M^−1s^−1 | below the detection limit |
| C#Cc1cccc(N2CCN(C(=O)[C@H](CCCCNC(=O)C=C)NC(=O)Cc3ccccc3)CC2)n1 [Compound 3, N^α-Phenylacetyl-N^ε-acryloyl-L-lysine-4-(6-ethinylpyridin-2-yl)piperazide] | 3450 M⁻¹ s⁻¹ | 441 nM | 96 nM | – | – |
